Measured values from patent US5929110A, “Fatty acid analogs and prodrugs” (G. D. Searle & Co., priority 1998, dated 1999).

test system: HIV-1; assay: inhibition of HIV-1; reduction of cytopathogenic effect in virus-infected Leu-3a-positive CEM cells (MTT assay); type: cell-based, strain HTVL-IIIB; details: Human immunodeficiency virus 1, CCRF-CEM, multiplicity of infection 0.1, MTT read on 7th to 9th day post-infection
Protocol: Inhibitory activity against HIV-1 was shown by tests involving plating of susceptible human host cells which are syncytium-sensitive with and without virus in microculture plates, adding various concentrations of the test compound, incubating the plates for 7 to 9 days (during which time infected, non-drug treated control cells are largely or totally destroyed by the virus), and then determining the remaining number of viable cells with a colorometric endpoint.
Various illustrative compounds synthesized above were tested for inhibition of HIV-1 in a test which measured reduction of cytopathogenic effect in virus-infected syncytium-sensitive Leu-3a-positive CEM cells grown in tissue culture as follows:
Tissue culture plates were incubated at 37° C. in a humidified, 5% CO2 atmosphere and observed microscopically for toxicity and/or cytopathogenic effect (CPE). At 1 hour prior to infection each test article was prepared from the frozen stock, and a 20 μl volume of each dilution (prepared as a 10× concentration) was added to the appropriate wells of both infected and uninfected cells.
Assays were done in 96-well tissue culture plates. CEM cells were treated with polybrene at a concentration of 2 μg/ml, and an 80 μl volume of cells (1×10^4 cells) was dispensed into each well. A 100 μl volume of each test article dilution (prepared as a 2× concentration) was added to 5 wells of cells, and the cells were incubated at 37° C. for 1 hour. A frozen culture of HIV-1, strain HTVL-IIIB, was diluted in culture medium to a concentration of 5×10^4 TCID50 per ml, and a 20 μl volume (containing 10^3 TCID50 of virus) was added to 3 of the wells for each test article concentration. […] A 20 μl volume of normal culture medium was added to the remaining wells to allow evaluation of cytotoxicity. Each plate contained 6 wells of untreated, uninfected, cell control samples and 6 wells of untreated, infected, virus control samples.
On the 7th to 9th day post-infection, the cells in each well were resuspended and a 100 μl sample of each cell suspension was removed for use in an MTT assay. A 20 μl volume of a 5 mg/ml solution of 3-(4,5-dimethylthiazol-2-yl)-2,5-diphenyltetrazolium bromide (MTT) was added to each 100 μl cell suspension, and the cells were incubated at 37° C. in 5% CO2 for 4 hours. […] A 100 μl volume of a solution of 10% sodium dodecyl sulfate in 0.01N hydrochloric acid was added to each sample, and the samples were incubated overnight. The absorbance at 590 nm was determined for each sample using a Molecular Devices Vmax microplate reader. This assay detects drug-induced suppression of viral CPE, as well as drug cytotoxicity, by measuring the generation of MTT-formazan by surviving cells.

Compared with `COCCCCCCCCCCCC(=O)O` [Example 1, 12-Methoxydodecanoic Acid], `COCCCCCCCCCCCC(N)=O` [Example 12, 12-Methoxydodecanamide] is 45-fold higher in EC50: 4.3 µM for the first, 192 µM for the second.

First: COCCCCCCCOCCCC(=O)O [Example 5, 4-[(7-Methoxyheptyl)oxy]butanoic Acid]
Second: CCCCCCCCCCOCCC(=O)O [Example 7, 3-(Decyloxy)propanoic Acid]
The EC50 of the first is higher: greater than 430 µM for the first, 18.7 µM for the second.

`CCCCCCCCCCOCCC#N` [Example 6, 3-(Decyloxy)propanenitrile] and `CCCCCCCCCCOCCC(=O)N(CC)CC` [Example 19, 3-(Decyloxy)-N,N-diethylpropanamide] cannot be ordered by EC50: greater than 470 µM for the first, greater than 350 µM for the second.

Compared with `COCCCCCCCCCCCC(=O)OC` [Example 8, Methyl 12-Methoxydodecanoate], `CCOC(=O)CCCCCCCCCCCOC` [Example 9, Ethyl 12-Methoxydodecanoate] is 2.7-fold higher in EC50: 6.1 µM for the first, 16.6 µM for the second. The first is the more potent here.

`COCCCCCCCCCCCC(N)=S` [Example 13, 12-Methoxydodecanethioamide] and `CCN(CC)C(=O)CCCCCCCCCCCOC` [Example 15, N,N-Diethyl-12-methoxydodecanamide] cannot be ordered by EC50: greater than 400 µM for the first, greater than 350 µM for the second.

`COCCCCCCCCCCCC(=O)NCCc1ccccc1` [Example 16, 12-Methoxy-N-(2-phenylethyl) dodecanamide] and `CCOC(=O)C(CNC(=O)CCCCCCCCCCCOC)Cc1ccccc1` (stereo not drawn) [Example 42, Ethyl α-[[(12-Methoxy-1-oxododecyl)amino]methyl]benzenepropanoate] are within 1.5-fold of each other in EC50: 4.5 µM for the first, 6.4 µM for the second.

`CCCCCCCCCCOCCC(=O)NCc1ccccc1` [Example 20, 3-(Decyloxy)-N-(phenylmethyl)propanamide] and `CCCCCCCCCCOCCC(=O)NCC(=O)OCC` [Example 29, N-[3-(Decyloxy)-1-oxopropyl]glycine, Ethyl ester] cannot be ordered by EC50: greater than 310 µM for the first, greater than 315 µM for the second.

Going from `CCOC(=O)CNC(=O)CCCCCCCCCCCOC` [Example 21, N-(12-Methoxy-1-oxododecyl)-glycine, Ethyl ester] to `CCOC(=O)CNC(=O)CNC(=O)CCCCCCCCCCCOC` [Example 24, N-[N-(12-Methoxy-1-oxododecyl)glycyl]glycine, Ethyl ester], the EC50 rises from 8.6 µM to greater than 260 µM. The first is the more potent here.

`CCOC(=O)CN(Cc1ccccc1)C(=O)CCCCCCCCCCCOC` [Example 22, N-(12-Methoxy-1-oxododecyl)-N-(phenylmethyl)-glycine, Ethyl ester] and `CCOC(=O)CN(C(=O)CCCCCCCCCCCOC)c1ccccc1` [Example 28, N-(12-Methoxy-1-oxododecyl)-N-phenylglycine, Ethyl ester] cannot be ordered by EC50: greater than 245 µM for the first, greater than 250 µM for the second.

First: COCCCCCCCCCCCC(=O)NCC(=O)OC(C)(C)C [Example 23]
Second: CCOC(=O)CCNC(=O)CCCCCCCCCCCOC [Example 30, N-(12-Methoxy-1-oxododecyl)-β-alanine, Ethyl ester]
The EC50 of the first is 1.5-fold higher: 9.3 µM for the first, 6.1 µM for the second.

`CCOC(=O)CN(CC(=O)OCC)C(=O)CCCCCCCCCCCOC` [Example 25, N-(2-Ethoxy-2-oxoethyl)-N-(12-methoxy-1-oxododecyl)glycine, Ethyl ester] and `CCOC(=O)CN(C)C(=O)CCCCCCCCCCCOC` [Example 26, N-(12-Methoxy-1-oxododecyl)-N-methylglycine, Ethyl ester] cannot be ordered by EC50: greater than 240 µM for the first, greater than 300 µM for the second.

Compared with `CCOC(=O)[C@H](C)NC(=O)CCCCCCCCCCCOC` [Example 31, N-(12-Methoxy-1-oxododecyl)-L-alanine, Ethyl ester], `CCOC(=O)[C@@H](C)NC(=O)CCCCCCCCCCCOC` [Example 34, N-(12-Methoxy-1-oxododecyl)-D-alanine, Ethyl ester] is higher in EC50: 24 µM for the first, greater than 300 µM for the second.

`CCOC(=O)C(C)CNC(=O)CCCCCCCCCCCOC` (centres unmarked) [Example 36, Ethyl 2-[[(12-methoxy-1-oxododecyl)amino]-2-methyl]propanoate] and `CCOC(=O)[C@H](C)CNC(=O)CCCCCCCCCCCOC` [Example 39, Ethyl 3-[[(12-methoxy-1-oxododecyl)amino]-2R-methyl]propanoate] are within 1.5-fold of each other in EC50: 5.8 µM for the first, 6.7 µM for the second.
